Experimental data published in patent US20240140931A1, “TRICYCLIC COMPOUNDS AND USES THEREOF” (HUTCHMED LIMITED, priority 2021, published 2024).

Tests used:
[1] = system: pERK1/2 (Thr202/Tyr204) in Miapaca2 cells; assay: Assay of intracellular pERK1/2 (Thr202/Tyr204) phosphorylation; type: cell-based; settings: Homo sapiens, MIA PaCa-2, 2 h, pERK1/2 (Thr202/Tyr204) HTRF
Summary of the method: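 HTRF read-out (665/615 nm) of phospho-ERK1/2 Thr202/Tyr204 in lysates from Miapaca2 cells exposed for 2 h to 3-fold compound dilutions at 0.5% final DMSO. Controls: lysis buffer without cells and DMSO-treated cells; IC50 from four-parameter logistic fit.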

Miapaca2 3D spheroids = assay: Assay of cell proliferation on Miapaca2 3D spheroids; type: cell-based; settings: Homo sapiens, MIA PaCa-2, 120 h, CellTiter-Glo 3D, 5 days treatment
Method: Example 4 Assay of Cell Proliferation on Miapaca2 3D Spheroids
1. Reagents and Materials • CellTiter-Glo® 3D Cell Viability Assay Kit: Promega, Cat #G9683; • CellCarrier Spheroid ULA 96-well plate: Corning, Cat #4515; • Instrument: Envision, Perkinelmer; • Cell line: Miapaca2, ATCC, Cat #CRL-1420.
2. Preparation of Reaction Solutions • The test compound was dissolved in DMSO and diluted with DMSO to 3000.0 μM, and the compound was further 3-fold diluted with DMSO to: 1000.0, 333.3, 111.1, 37.0, 12.3, 4.1, and 1.4 μM. Then 2 μL of the compound at different dilution concentrations was added to 198 μL of a 1640 medium to prepare a 10× test compound, wherein DMSO was at the concentration of 1% (DMSO was at the final concentration of 0.1%).
3. Experimental Methods • Day0: Digest cells and count cell numbers. Miapaca2 cells were inoculated into a spheroid ULA 96-well plate at a density of 300 cells/well at 100 μL/well and cultured in a cell incubator at 5% CO2 and 37° C. • Day2: The cell spheroids formed at day2. Add 10 μL of 10× test compounds to the 96-well plate. To the cell positive control well was added 10 μL of 1% DMSO 1640 medium. Incubate the cell spheroids in a cell incubator at 5% CO2 and 37° C. for additional 5 days. • Cell viability assay: Add 50 μL of CellTiter-Glo reagent to each well, place the plate in a microplate shaker, and lysis under shaking at 900 rpm at room temperature for 5 minutes. Then incubate the plate at room temperature in the dark for 30 minutes. • The luminescene of each well was detected on Envision2104.
Cell Survial %=(Lum(d7 treatment)−Lum(d2 cell))/(Lum(d7 cell)−Lum(d2 cell))×100
Wherein: • Lum(d7 treatment) refers to the luminescene of the test compound treated cells on day7; • Lum(d2 cell) refers to the luminescene of the 0.1% DMSO treated Miapaca2 cells on day2; • Lum(d7 cell) refers to the luminescene of the 0.1% DMSO treated Miapaca2 cells on day7. • IC50 values were calculated following formula 205: y=A+((B−A)/(1+((C/X)^D))), by using the XL-Fit 5.0 software.

[2] = target: Human full-length SHP2 recombinant protein (Homo sapiens (Human), UniProt Q06124); assay: Assay of full-length SHP2 phosphatase activity; type: biochemical; settings: DiFMUP substrate, with activating peptide
Summary of the method: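 Readout: DiFMUP hydrolysis fluorescence (355/460 nm) after 60 min at 25 °C, following 30 min RT preincubation of compound with peptide-activated full-length human SHP2. Controls were 1% DMSO with or without enzyme; IC50 by four-parameter logistic fit.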

IC50 [1] [nM] | IC50 (Miapaca2 3D spheroids) [nM] | IC50 [2] [nM] | SMILES
2 | 0.5 | 1 | CNC(=O)C#Cc1ccc2c(c1)[C@@H](N)C1(CCN(c3cnc(Sc4ccnc(N)c4Cl)c(N)n3)CC1)C2 [Compound 229, (S)-3-(1-amino-1′-(6-amino-5-((2-amino-3-chloropyridin-4-yl)thio)pyrazin-2-yl)-1,3-dihydrospiro[indene-2,4′-piperidin]-6-yl)-N-methylpropiolamide]
7 | 0.8 | < 0.5 | CNC(=O)C#Cc1ccc2c(c1)[C@@H](N)C1(CCN(c3cnc(Sc4cccnc4Cl)cn3)CC1)C2 [Compound 231]
8 | 0.9 | 2 | CNC(=O)C#Cc1ccc2c(c1)[C@@H](N)C1(CCN(c3ncc(Sc4ccnc(N)c4Cl)nc3C)CC1)C2 [Compound 232]
4 | 1 | 1.3 | CCNC(=O)C#Cc1ccc2c(c1)[C@@H](N)C1(CCN(c3cnc(Sc4cccnc4Cl)c(N)n3)CC1)C2 [Compound 238]
10 | 3.8 | 1.2 | C#Cc1ccc2c(c1)[C@@H](N)C1(CCN(c3nc(N)c(Sc4ccnc(N)c4Cl)nc3C)CC1)C2 [Compound 241]
13 | 2 | 0.7 | CNC(=O)C#Cc1ccc2c(c1)[C@@H](N)C1(CCN(c3cnc(Sc4cccnc4C(F)(F)F)cn3)CC1)C2 [Compound 242]
2 | 0.4 | < 0.5 | CNC(=O)C#Cc1ccc2c(c1)[C@@H](N)C1(CCN(c3cnc(Sc4cccnc4Cl)c(N)n3)CC1)C2 [Compound 248]
31 | 19 | 1 | CCNC(=O)C#Cc1ccc2c(c1)[C@@H](N)C1(CCN(c3ncc(Sc4ccnc(N)c4Cl)nn3)CC1)C2 [Compound 249]
72 | 14 | 1 | CNC(=O)C#Cc1ccc2c(c1)[C@@H](N)C1(CCN(c3ncc(Sc4ccnc(N)c4Cl)nn3)CC1)C2 [Compound 250]
3 | 1 | 1 | C#Cc1ccc2c(c1)[C@@H](N)C1(CCN(c3cnc(Sc4ccnc(N)c4Cl)cn3)CC1)C2 [Compound 252]
11 | 10 | 3 | CNC(=O)C#Cc1ccc2c(c1)[C@@H](N)C1(CCN(c3cnc(Sc4cc(N)nc(Cl)c4Cl)cn3)CC1)C2 [Compound 254]
12 | 6 | 4 | CCNC(=O)C#Cc1ccc2c(c1)[C@@H](N)C1(CCN(c3cnc(Sc4cc(N)nc(Cl)c4Cl)cn3)CC1)C2 [Compound 256]
1 | 0.3 | < 0.5 | CCNC(=O)C#Cc1ccc2c(c1)[C@@H](N)C1(CCN(c3cnc(Sc4ccnc(N)c4F)cn3)CC1)C2 [Compound 257]
5 | 2 | 1 | CCNC(=O)C#Cc1ccc2c(c1)[C@@H](N)C1(CCN(c3cnc(Sc4ccnc(N)n4)cn3)CC1)C2 [Compound 260]
7 | 1 | 0.3 | CNC(=O)C#Cc1ccc2c(c1)[C@@H](N)C1(CCN(c3cnc(Sc4ccnc(N)n4)cn3)CC1)C2 [Compound 262]
2 | 0.4 | 0.6 | CNC(=O)C#Cc1ccc2c(c1)[C@@H](N)C1(CCN(c3cnc(Sc4ccnc(N)c4F)c(N)n3)CC1)C2 [Compound 264]
0.9 | 0.4 | 0.4 | CNC(=O)C#Cc1ccc2c(c1)[C@@H](N)C1(CCN(c3cnc(Sc4ccnc(N)c4F)cn3)CC1)C2 [Compound 265]

Second part, the molecule before the results:

SMILES | IC50 [1] [nM] | IC50 (Miapaca2 3D spheroids) [nM] | IC50 [2] [nM]
Nc1nc(N2CCC3(CC2)Cc2ccc(C#CC(=O)NC4CC4)cc2[C@H]3N)c(Cl)nc1Sc1ccnc(N)c1Cl [Compound 230] | 31 | 7.4 | 10
CNC(=O)C#Cc1ccc2c(c1)[C@@H](N)C1(CCN(c3ncc(Sc4ccnc(N)n4)nc3C)CC1)C2 [Compound 233] | 14 | 3.2 | 1.1
CCNC(=O)C#Cc1ccc2c(c1)[C@@H](N)C1(CCN(c3cnc(Sc4cccnc4C(F)(F)F)c(N)n3)CC1)C2 [Compound 235] | 9 | 0.9 | 1.7
CNC(=O)C#Cc1ccc2c(c1)[C@@H](N)C1(CCN(c3cnc(Sc4cccnc4C(F)(F)F)c(N)n3)CC1)C2 [Compound 236] | 3 | 1 | 1.3
CCCNC(=O)C#Cc1ccc2c(c1)[C@@H](N)C1(CCN(c3nc(N)c(Sc4ccnc(N)c4Cl)nc3C)CC1)C2 [Compound 237] | 4 | 2.4 | 3.9
CNC(=O)C#Cc1ccc2c(c1)[C@@H](N)C1(CCN(c3nc(N)c(Sc4ccnc(N)c4Cl)nc3F)CC1)C2 [Compound 239, (S)-3-(1-amino-1′-(6-amino-5-((2-amino-3-chloropyridin-4-yl)thio)-3-fluoropyrazin-2-yl)-1,3-dihydrospiro[indene-2,4′-piperidin]-6-yl)-N-methylpropiolamide] | 15 | 2.1 | 3
CNC(=O)C#Cc1ccc2c(c1)[C@@H](N)C1(CCN(c3nc(N)c(Sc4ccnc(N)c4Cl)nc3Br)CC1)C2 [Compound 240, (S)-3-(1-amino-1′-(6-amino-5-((2-amino-3-chloropyridin-4-yl)thio)-3-bromopyrazin-2-yl)-1,3-dihydrospiro[indene-2,4′-piperidin]-6-yl)-N-methylpropiolamide] | 18 | 5 | 1.5
CCNC(=O)C#Cc1ccc2c(c1)[C@@H](N)C1(CCN(c3cnc(N4CCCc5ncccc54)cn3)CC1)C2 [Compound 243, (S)-3-(1-amino-1′-(5-(3,4-dihydro-1,5-naphthyridin-1(2H)-yl)pyrazin-2-yl)-1,3-dihydrospiro[indene-2,4′-piperidin]-6-yl)-N-ethylpropiolamide] | 19 | 15 | 0.7
CCNC(=O)C#Cc1ccc2c(c1)[C@@H](N)C1(CCN(c3cnc(N4CCCc5ncccc54)nn3)CC1)C2 [Compound 244] | 139 | 41 | 11
C#Cc1ccc2c(c1)[C@@H](N)C1(CCN(c3cc(=O)n(-c4cccc(Cl)c4Cl)c(N)n3)CC1)C2 [Compound 245] | 12 | 17 | < 0.5
CCNC(=O)C#Cc1ccc2c(c1)[C@@H](N)C1(CCN(c3cnc(Sc4cc(N)ncc4Cl)c(N)n3)CC1)C2 [Compound 247] | 3 | 1 | 1
CNC(=O)C#Cc1ccc2c(c1)[C@@H](N)C1(CCN(c3cnc(N4CCCc5ncccc54)cn3)CC1)C2 [Compound 251] | 24 | 29 | 1
CNC(=O)C#Cc1ccc2c(c1)[C@@H](N)C1(CCN(c3cnc(Sc4cc(N)nc(Cl)c4Cl)c(N)n3)CC1)C2 [Compound 253] | 10 | 2 | 1
CCNC(=O)C#Cc1ccc2c(c1)[C@@H](N)C1(CCN(c3cnc(Sc4cc(N)nc(Cl)c4Cl)c(N)n3)CC1)C2 [Compound 255] | 8 | 3 | 3
CCNC(=O)C#Cc1ccc2c(c1)[C@@H](N)C1(CCN(c3ncc(Sc4ccnc(N)c4Cl)nc3C)CC1)O2 [Compound 259] | 23 | 5 | 4
CCNC(=O)C#Cc1ccc2c(c1)[C@@H](N)C1(CCN(c3ncc(Sc4ccnc(N)n4)nc3C)CC1)C2 [Compound 261] | 7 | 2 | 0.9
CNC(=O)C#Cc1ccc2c(c1)[C@@H](N)C1(CCN(c3ncc(Sc4ccnc(N)c4Cl)nc3C)CC1)O2 [Compound 266] | 26 | 10 | 5
